Values of other authors, collected in patent publication US11903950B2, “BCL-2 inhibitors” (Newave Pharmaceutical Inc., priority 2018, dated 2024).

Legend:
circulating platelets = settings: clinical trial, patients
[1] = test system: xenograft models of small-cell lung cancer and acute lymphoblastic leukemia; settings: oral administration, alone

CC1(C)CCC(c2ccc(Cl)cc2)=C(CN2CCN(c3ccc(C(=O)NS(=O)(=O)c4ccc(N[C@H](CCN5CCOCC5)CSc5ccccc5)c(S(=O)(=O)C(F)(F)F)c4)cc3)CC2)C1 [ABT-263]
number of circulating platelets (circulating platelets): rapid, concentration-dependent decrease in the number of circulating platelets | tumor regression [1]: complete tumor regressions
